For 13 compounds, IC50 results are on record in ChEMBL document CHEMBL1806473, “Structure-based optimization of click-based histone deacetylase inhibitors” (Eur J Med Chem, 2011).

Broadly, the IC50 is the midpoint of a concentration-inhibition curve. Read a low IC50 as greater potency in that assay.

The assay has as its target Histone deacetylase. In words: Inhibition of HDAC in human HeLa cells using Ac-Arg-Gly-Lys(Ac)-AMC as fluorescent substrate after 20 mins by fluorescence assay. It is filed as cell-based.
In turn, `CC(C)CC(/C=C/c1ccccc1)n1cc(/C=C/C(=O)NO)nn1` (stereo not drawn) registered an IC50 of 838 nM.
As for `O=C(/C=C/c1cn(C(/C=C/c2ccccc2)Cc2cccc(-c3ccccc3)c2)nn1)NO` (stereo not drawn), the figure is 403 nM; as for `O=C(/C=C/c1cn(C(/C=C/c2ccccc2)C2CCC2)nn1)NO` (stereo not drawn), 54 nM.
Compound `O=C(/C=C/c1cn(C(/C=C/c2ccccc2)C2CCCC2)nn1)NO` (stereo not drawn) yielded an IC50 of 115 nM.
The result for `O=C(/C=C/c1cn(C(/C=C/c2ccccc2)Cc2cccc3ccccc23)nn1)NO` (stereo not drawn) reads 111 nM; that for `CCCC(/C=C/c1ccccc1)n1cc(/C=C/C(=O)NO)nn1` (stereo not drawn), 132 nM.
As for `CC(C)(C)C(/C=C/c1ccccc1)n1cc(/C=C/C(=O)NO)nn1` (stereo not drawn), the figure is 18 nM; as for `CCCCC(/C=C/c1ccccc1)n1cc(/C=C/C(=O)NO)nn1` (stereo not drawn), 137 nM; as for `O=C(/C=C/c1cn(C(/C=C/c2ccccc2)Cc2ccc3ccccc3c2)nn1)NO` (stereo not drawn), 94 nM.
The result for `O=C(/C=C/c1cn(C(/C=C/c2ccccc2)Cc2cccc(Oc3ccccc3)c2)nn1)NO` (stereo not drawn) reads 510 nM; that for `C=CCC(/C=C/c1ccccc1)n1cc(/C=C/C(=O)NO)nn1` (stereo not drawn), 90 nM; that for `CCC(/C=C/c1ccccc1)n1cc(/C=C/C(=O)NO)nn1` (stereo not drawn), 55 nM.
As to `O=C(/C=C/c1cn(C(/C=C/c2ccccc2)Cc2nccs2)nn1)NO` (stereo not drawn), the IC50 turned out to be 171 nM.
